Test results as given in a melting point compilation (Tetko et al.; mined from patent text by program, amines drawn as free bases though some values may be those of a salt).

First: COc1ccc2c3c1OC1C(O)C(C)(C)CC4C(C2)N(C)CCC341 (centres undefined)
Second: COC(=O)c1c(N)ncn1C1c2ccccc2CC1(C)C (centres undefined)
The melting point of the first is higher: greater than 265 °C for the first, 100 to 105 °C for the second.

First: CCCCCc1c(/C=C/C(=O)OC)sc2cc(OC)ccc12
Second: COc1cc(CCc2c(CO)ccc(OC)c2OC)cc(OC)c1
The melting point of the first is lower: 49 to 50 °C for the first, 126 to 128 °C for the second.

Compared with `NCCCCNC(=O)N1c2ccccc2C=Cc2ccccc21`, `O=C(NCCCc1ccc(CO)cc1)c1ccc(-c2ccccn2)cc1` is higher in melting point: 114 to 116 °C for the first, 118 to 120 °C for the second.

First: CC(C)(C)c1cccc(S(=O)(=O)n2c(C(O)c3ccc(C(=O)O)s3)cc3cc(C(F)(F)F)ccc32)c1 (centres undefined)
Second: O=C(O)c1ccc(-c2ccc(-c3ccc(C(F)(F)F)cc3)s2)cc1
The melting point of the first is lower: 90 °C for the first, 284 to 285 °C for the second.

First: CCCN(c1ccncn1)n1cc(C)c2ccccc21
Second: Cc1nc2ccccc2n1-c1ccc(C(=O)O)cc1
The melting point of the first is lower: 74 to 76 °C for the first, 299 to 300 °C for the second.

First: NN1CCN(Cc2c[nH]c3ccccc23)CC1
Second: O=[N+]([O-])c1ccc(N2CCN(Cc3ccccc3)CC2)cc1CS(=O)(=O)c1ccccc1
The melting point of the first is higher: 147 to 149 °C for the first, 145 to 146 °C for the second.

Compared with `Oc1ccc(Cl)cc1C(c1cc(Cl)ccc1O)C(F)(F)F`, `O=S(=O)(c1cc(Cl)ccc1Cl)n1c2cc(O)c(O)cc2c2ccc(O)c(O)c21` is higher in melting point: 144 °C for the first, greater than 300 °C for the second.

Compared with `CS(=O)(=O)Nc1cc(C(O)CNC2CCN(c3ccc(C=C4SC(=O)NC4=O)cc3F)CC2)ccc1O` (centres undefined), `CCn1cc(C(=O)O)c(=O)c2cc(F)c(N3CCNC(c4ccsc4)C3)cc21` (centres undefined) is lower in melting point: greater than 225 °C for the first, 198 to 200 °C for the second.

Compared with `O=C(Nc1ccc2c(c1)OCO2)c1ccccc1`, `CC=NN(C(=O)c1ccccc1)c1ccc(OC)cc1` is lower in melting point: 110 to 112 °C for the first, 68 to 70 °C for the second.

First: c1ccc(Cn2cc(-c3ncc(-c4ccc5cc(OCc6nnn[nH]6)ccc5c4)o3)c3ccccc32)cc1
Second: Fc1ccc(Cn2c(N3CCC(Nc4nc5ccccc5n4Cc4ccccc4)CC3)nc3ccccc32)cc1
The melting point of the first is higher: 244 to 246 °C for the first, 164 °C for the second.

Compared with `CCOC(=O)c1cn(CCCN(C)C)c2nn(C)cc2c1=O`, `CCOC(=O)c1cn(C)c2cnc3cc(F)c(F)cc3c2c1=O` is higher in melting point: 120 to 121 °C for the first, 272 °C for the second.

First: CC(=C(c1ccccc1)c1ccccc1)P(c1ccccc1)c1ccccc1
Second: CCCc1nc2cc(C(=O)c3ccccc3)ccc2[nH]1
The melting point of the first is lower: 128 to 130 °C for the first, 131 to 132 °C for the second.

Compared with `COc1ccc(-c2cc(N3CCN(C(=O)c4cc(S(N)(=O)=O)c(Cl)cc4Cl)CC3)nc(C)n2)cc1OC`, `COc1cc(C(=O)N2CCN(c3ccc(N)cc3)CC2)cc(OC)c1O` is higher in melting point: 150 to 160 °C for the first, 182 to 183 °C for the second.

First: O=C1CCCC(c2ccc(Cl)cc2)O1 (centres undefined)
Second: COC=C1CCC(c2ccc(C(=O)OC)cc2)CC1 (centres undefined)
The melting point of the first is higher: 110 to 111 °C for the first, 58 °C for the second.

First: CCOC(=O)c1ccc(OCCC2CCc3c(c(OC)c(OC)c(OC)c3OC)CC2)cc1
Second: CCOc1ccc(C[C@@H](NC(=O)[C@H]2CC[C@H](C(C)C)CC2)C(=O)O)cc1
The melting point of the first is lower: 129 to 131 °C for the first, 149 to 151 °C for the second.

Compared with `Cc1cc(/C=C/C(=O)N(C)O)c(C)n1-c1ccc(C(=O)N(C)C)cc1`, `CC(c1cc(Cl)ccc1N1CCCCC1C)C(C(N)=O)c1ccc(C(=O)O)cc1` (centres undefined) is higher in melting point: 172 to 174 °C for the first, 195 to 198 °C for the second.

First: CCOC(=O)c1cc(O)c2cc3c(O)cc(C(=O)OCC)nc3c(N(CC)CC)c2n1
Second: CCOC(=O)C1=C(COCc2cc(=O)[nH]c(N)n2)NC(C)=C(C(=O)OC)C1c1ccccc1Cl (centres undefined)
The melting point of the first is higher: 267 to 268 °C for the first, 185 to 187 °C for the second.

First: COc1ccc(C2(C#N)CCC(=O)CC2)cc1OC1CCCC1
Second: Cc1cc(N)ccc1N1CCC(N2CCOCC2)CC1
The melting point of the first is lower: 111 to 112 °C for the first, 199 to 200 °C for the second.

Compared with `Cc1nc2c(N)nc3c(c2n1CC(C)C)CCNC3`, `CCCc1c(O)c(C(C)=O)cc2c1CCCC2` is lower in melting point: 226 to 230 °C for the first, 52 to 53 °C for the second.

First: CN1C(=O)CC(c2ccccc2)C1C(O)Cc1cccc(Cl)c1 (centres undefined)
Second: NC(=O)Cc1cccc(C(O)c2ccccc2)c1N (centres undefined)
The melting point of the first is lower: 50 to 52 °C for the first, 198 to 199 °C for the second.

First: Cc1cc(C#N)c(N)cc1Cl
Second: Nc1cccc(O)c1Cl
The melting point of the first is higher: 180 °C for the first, 153 °C for the second.

Compared with `COC(=O)C1CN2c3c(cc(F)c(OS(C)(=O)=O)c3CCN2C)C1=O` (centres undefined), `CC(C)OC(=O)c1cc(-n2c(=O)c3c(n(C)c2=O)CCC3)ccc1Cl` is lower in melting point: 247 to 250 °C for the first, 148 to 150 °C for the second.

First: COc1ccc(CC(=O)Nc2cc(-c3c(-c4cccc(C)c4)nc4cccnn34)ccn2)cc1
Second: Cc1ccc(S(=O)(=O)OCC2Cc3cccc(-c4cccc(C)c4)c3O2)cc1 (centres undefined)
The melting point of the first is higher: 213 to 214 °C for the first, 81 to 82 °C for the second.

Compared with `Cn1cc(-c2ccc(F)cc2)c(C(=O)O)n1`, `O=C(O)c1cnc(-c2ccc(Cl)cc2)s1` is higher in melting point: 146 to 147 °C for the first, 233 to 234 °C for the second.

First: CCCCOS(C)(=O)=O
Second: CCCCOc1cc(C(=O)O)cc([N+](=O)[O-])c1-c1ccccc1
The melting point of the first is lower: 100 to 101 °C for the first, 133 to 134 °C for the second.

Compared with `Cc1nc(N2CCCC(Cc3ccccc3)C2=O)sc1C(=O)NCc1ccccc1` (centres undefined), `CCN1C2=C(C(=O)Nc3ccccc3F)C(=O)CCN2c2ccccc21` is lower in melting point: 162 to 164 °C for the first, 142 to 143 °C for the second.

First: CC(C)(C)OC(=O)CN1CCN[C@@H](Cc2ccc(OC(C)(C)C)cc2)C1=O
Second: COC1CCN(c2cc(NC(=O)OC(C)(C)C)c([N+](=O)[O-])cc2C#Cc2ccccc2)CC1
The melting point of the first is lower: 124 to 126 °C for the first, 147 to 150 °C for the second.

Compared with `Cc1cc(-c2c3c(cc4ccc(O)cc24)-c2ccc(O)cc2CO3)ccc1F`, `Cc1[nH]cc2c(=O)n(-c3ccc(Cl)cc3)nc-2c1-c1ccc(-c2cccnc2)cc1` is higher in melting point: 185 to 188 °C for the first, 308 to 309 °C for the second.

First: O=C1c2c(O)ccc(O)c2C(=O)c2c(NCCN3CCCCC3)ccc(NCCN3CCCCC3)c21
Second: CSc1c(C(=O)NN2CCCCC2)nn(-c2ccc(Cl)cc2Cl)c1-c1ccc(Cl)cc1
The melting point of the first is higher: 219 to 221 °C for the first, 172 to 174 °C for the second.

Compared with `CC(C)(C)CC(C)(C)Nc1nc(Cl)nc(N2CC3CCC(CC3)C2)n1`, `CCOc1cc(C(C)(C)C)ccc1-c1nc(-c2c(F)cccc2Cl)nn1C` is lower in melting point: 159 to 162 °C for the first, 108 to 111 °C for the second.

First: Cn1cc(-c2cccc(C(F)(F)F)c2)c(=O)c(-c2cccc(C(F)(F)F)c2)c1
Second: Cc1ccc2c(c1)nnn2C1(c2ccccc2)OC(=O)c2cccc([N+](=O)[O-])c21 (centres undefined)
The melting point of the first is lower: 152 to 154 °C for the first, 240 to 248 °C for the second.

First: O=C1COC[C@@H](c2cccc(F)c2)N1
Second: CCOC(=O)N1CCC(=NO)c2cc(F)ccc21
The melting point of the first is lower: 119 to 121 °C for the first, 122 to 124 °C for the second.

First: Nc1cccc(-n2c(=O)c(CCC(O)c3ccncc3)cc3cccnc32)c1 (centres undefined)
Second: CCCc1ccc(S(=O)(=O)c2ccc(F)cc2)cc1S(=O)(=O)NCCc1ccncc1
The melting point of the first is higher: 209 to 211 °C for the first, 160 to 162 °C for the second.

First: O=C(O)c1cnc(C(F)(F)F)nc1C(F)(F)F
Second: O=C(O)c1ccc(C=Cc2csc3ccccc23)s1
The melting point of the first is lower: 59 °C for the first, 196 to 197 °C for the second.

First: COc1cc(C2CCN(C[C@@H](O)CO)CC2)ccc1-c1nc2c(N[C@H]3[C@@H](C(N)=O)[C@@H]4C=C[C@H]3C4)c(Cl)cnc2[nH]1
Second: CCCc1nc(C(C)O)c(C(=O)O)n1Cc1ccc(-c2ccccc2-c2nnn[nH]2)cc1 (centres undefined)
The melting point of the first is higher: 209 to 211 °C for the first, 198 to 201 °C for the second.

Compared with `Nc1ccc(OCC2COCCO2)cc1` (centres undefined), `CCCCCOc1ccc2cc(CCC(N)(CO)CO)ccc2c1` is higher in melting point: 86 to 87 °C for the first, 106 to 109 °C for the second.

Compared with `O=C1N(Cc2ccc(-c3ccccn3)cc2)c2ccccc2C12COc1cc3c(cc12)CCO3` (centres undefined), `COc1ccc(C2=C(C(=O)O)N(Cc3ccc4c(c3)OCO4)S(=O)(=O)c3ccccc32)cc1OC` is higher in melting point: 217 to 219 °C for the first, 267 to 268 °C for the second.

First: COc1cc(C(C)C)c2c(c1)S(=O)(=O)N(CCl)C2=O
Second: CCS(=O)(=O)CCC(=O)NNC(=O)N1Cc2cc(OC)ccc2Oc2ccc(Cl)cc21
The melting point of the first is lower: 151 to 152 °C for the first, 173 to 175 °C for the second.

First: N#Cc1c(Nc2c(F)cccc2F)cccc1Oc1ccccc1
Second: CCc1nc(NC(=S)NCCc2ccccc2Oc2ccccc2)cs1
The melting point of the first is lower: 150 to 153 °C for the first, 168 °C for the second.

Compared with `CCn1cc(C(=O)NCc2ccc(Cl)cc2)c(=O)c2ccsc21`, `CSc1nnc2c(=O)c3ccc(Cl)cc3ccn12` is higher in melting point: 183 to 184 °C for the first, 254 to 255 °C for the second.

Compared with `Cc1nnc(-c2ccc(Cl)c([N+](=O)[O-])c2)[nH]1`, `Cn1ccnc1Sc1cc(Cl)ccc1[N+](=O)[O-]` is lower in melting point: 168 °C for the first, 130 to 131 °C for the second.

First: CC1NC(=O)NN=C1c1ccc2c(c1)CCC(=O)N2C (centres undefined)
Second: Cn1c2ccccc2c2c(=O)n([C@@H]3CN4CCC3CC4)ccc21
The melting point of the first is lower: 240 to 242 °C for the first, 251 to 252 °C for the second.

First: CC(C)(SCCCCCCNS(=O)(=O)c1ccc(Cl)cc1)C(=O)O
Second: COC(=O)CCCCNC(=O)C[C@H]1O[C@H](c2cccc(OC)c2OC)c2cc(Cl)ccc2N(CC(C)(C)CO)C1=O
The melting point of the first is higher: 93 to 94 °C for the first, 84 to 85 °C for the second.

First: Nc1ccc(Oc2ccc(Oc3ccc(Oc4ccc(Oc5ccc(N)cc5)cc4)cc3)cc2)cc1
Second: O=C(c1ccc(I)cc1)c1ccc(-c2ccc(Cl)cc2)cc1
The melting point of the first is lower: 170 °C for the first, 218 °C for the second.

First: CN1CCN(c2cccc3ccc(NCc4cccc5ccccc45)cc23)CC1
Second: C[C@@H](n1cnc2cc(NCc3ccccc3)ccc2c1=O)[C@](O)(Cn1cncn1)c1ccc(F)cc1F
The melting point of the first is higher: 140 to 141 °C for the first, 100 to 107 °C for the second.

First: Cc1nn(-c2cc(Oc3ccc(C#N)cc3)c(Cl)cc2F)c(=O)n1C(F)F
Second: N#Cc1ccc(-c2nccc3[nH]c(=O)ccc23)cc1
The melting point of the first is lower: 175 to 177 °C for the first, greater than 300 °C for the second.

Compared with `COc1ccc(F)cc1C(=O)NC1COc2cc(OC)c(S(=O)(=O)NC(=S)NC(C)C)cc2C1` (centres undefined), `COc1cc(/C=C2/C(C)=C(CC(=O)O)c3cc(F)ccc32)cc(OC)c1OC` is lower in melting point: 179 to 180 °C for the first, 149 to 152 °C for the second.

Compared with `O=C(CN1CC=C(c2c[nH]c3cc(Cl)ccc23)CC1)Nc1ccccn1`, `CC(C)OCC(O)CN1CCC2(CC1)CSC1=C(O2)c2ccccc2C(=O)C1=O` (centres undefined) is lower in melting point: 202 to 204 °C for the first, 97 to 99 °C for the second.

First: COc1cnc(C)c(C)c1OC
Second: CC(=O)OC1CCc2cc(N(C(C)=O)S(C)(=O)=O)c(Oc3ccccc3)cc21 (centres undefined)
The melting point of the first is lower: 36 to 38 °C for the first, 70 °C for the second.

`CCc1nc(/C=C\c2cn(-c3ccccc3)nc2OCc2ccc(OCc3nc(N4CCOCC4)sc3C)c(OC)c2)cs1` showed a melting point of 76 to 78 °C.
